Data reported in patent US6737041B1, “Non-ozone depleting vapocoolants” (University of Cincinnati, priority 1993, dated 2004).

Assays:
[1] = test system: skin (site on the subject's forearm); experiment: Study 1: minimum skin temperature after spraying coolant for 5 seconds from 12 inches; assay type: in vivo, human; settings: spray time 5 seconds; for Minimum temperature for site A, MEAN ± STANDARD DEVIATION / Minimum temperature for site A: site A (forearm); for Minimum temperature for site A, MEAN ± STANDARD DEVIATION / Minimum temperature for site B, MEAN ± STANDARD DEVIATION: mean of 5 subjects, in °C (unit assumed); for Minimum temperature for site B, MEAN ± STANDARD DEVIATION / Minimum temperature for site B: site B (forearm, different from A)
Method: Tables 1 and 5 describe the experimental conditions in accordance with the procedural steps described above. The only difference between Table 1 and Table 5 and between Study 1 and Study 2 is that in Study 1 the spray time was five seconds, whereas in Study 2 the spray time was 3 seconds. Comparison is made between various coolants including ethylchloride at room temperature, ethylchloride at 11° C., Fluorimethane® at room temperature, Fuorimethane® at 11° C. and mixtures of HFC 152a and HFC 134a.
(§1) Tables 2 and 6 describe the subjects chosen including their normal skin temperature, the sex, race, age, weight and height of the subjects.

[2] = test system: skin (site on the subject's forearm); experiment: Study 2: minimum skin temperature after spraying coolant for 3 seconds from 12 inches; assay type: in vivo, human; settings: spray time 3 seconds; for Minimum temperature for site A, MEAN ± SD / Minimum temperature for site A: site A (forearm); for Minimum temperature for site A, MEAN ± SD / Minimum temperature for site B, MEAN ± SD: mean of 15 subjects, in °C (unit assumed); for Minimum temperature for site B, MEAN ± SD / Minimum temperature for site B: site B (forearm, different from A)
Source text: Tables 1 and 5 describe the experimental conditions in accordance with the procedural steps described above. The only difference between Table 1 and Table 5 and between Study 1 and Study 2 is that in Study 1 the spray time was five seconds, whereas in Study 2 the spray time was 3 seconds.
as §1

[3] = subject 1, in °C (unit assumed)
[4] = subject 2, in °C (unit assumed)
[5] = subject 3, in °C (unit assumed)
[6] = subject 4, in °C (unit assumed)
[7] = subject 5, in °C (unit assumed)
[8] = subject code 1, in °C (unit assumed)
[9] = subject code 2, in °C (unit assumed)
[10] = subject code 3, in °C (unit assumed)
[11] = subject code 4, in °C (unit assumed)
[12] = subject code 5, in °C (unit assumed)
[13] = subject code 6, in °C (unit assumed)
[14] = subject code 7, in °C (unit assumed)
[15] = subject code 8, in °C (unit assumed)
[16] = subject code 9, in °C (unit assumed)
[17] = subject code 10, in °C (unit assumed)
[18] = subject code 11, in °C (unit assumed)
[19] = subject code 12, in °C (unit assumed)
[20] = subject code 13, in °C (unit assumed)
[21] = subject code 14, in °C (unit assumed)
[22] = subject code 15, in °C (unit assumed)

For `CCCl` [EC, Ethyl chloride], the “Minimum temperature for site A, MEAN ± STANDARD DEVIATION” value [1] was −14.93 ± 2.45, the “Minimum temperature for site A” value [1, 3] was −13.22 and the “Minimum temperature for site A” value [1, 4] was −16.87. The “Minimum temperature for site A” value [1, 5] was −17.56, the “Minimum temperature for site A” value [1, 6] was −11.72 and the “Minimum temperature for site A” value [1, 7] was −15.26. The “Minimum temperature for site B, MEAN ± STANDARD DEVIATION” value [1] was −16.40 ± 0.77, the “Minimum temperature for site B” value [1, 3] was −16.87 and the “Minimum temperature for site B” value [1, 4] was −15.78. The “Minimum temperature for site B” value [1, 5] was −15.73, the “Minimum temperature for site B” value [1, 6] was −16.12 and the “Minimum temperature for site B” value [1, 7] was −17.50. The “Minimum temperature for site A, MEAN ± SD” value [2] was −15.70 ± 1.56, the “Minimum temperature for site A” value [2, 8] was −16.93 and the “Minimum temperature for site A” value [2, 9] was −14.64. The “Minimum temperature for site A” value [2, 10] was −13.78, the “Minimum temperature for site A” value [2, 11] was −14.86 and the “Minimum temperature for site A” value [2, 12] was −15.34. For the same compound, the “Minimum temperature for site A” value [2, 13] was −14.75, the “Minimum temperature for site A” value [2, 14] was 16.70 and the “Minimum temperature for site A” value [2, 15] was −18.76. For the same compound, the “Minimum temperature for site A” value [2, 16] was −15.46, the “Minimum temperature for site A” value [2, 17] was −16.53 and the “Minimum temperature for site A” value [2, 18] was −14.68. For the same compound, the “Minimum temperature for site A” value [2, 19] was −13.59, the “Minimum temperature for site A” value [2, 20] was −14.52 and the “Minimum temperature for site A” value [2, 21] was −16.62. For the same compound, the “Minimum temperature for site A” value [2, 22] was −18.45, the “Minimum temperature for site B, MEAN ± SD” value [2] was −15.92 ± 2.01 and the “Minimum temperature for site B” value [2, 8] was −17.99. For the same compound, the “Minimum temperature for site B” value [2, 9] was −17.03, the “Minimum temperature for site B” value [2, 10] was −13.60 and the “Minimum temperature for site B” value [2, 11] was −16.89. For the same compound, the “Minimum temperature for site B” value [2, 12] was −15.33, the “Minimum temperature for site B” value [2, 13] was −12.73 and the “Minimum temperature for site B” value [2, 14] was −15.93. For the same compound, the “Minimum temperature for site B” value [2, 15] was −18.79, the “Minimum temperature for site B” value [2, 16] was −12.08 and the “Minimum temperature for site B” value [2, 17] was −14.03. The “Minimum temperature for site B” value [2, 18] was −18.32, the “Minimum temperature for site B” value [2, 19] was −16.52 and the “Minimum temperature for site B” value [2, 20] was 16.48. For the same compound, the “Minimum temperature for site B” value [2, 21] was −16.02 and the “Minimum temperature for site B” value [2, 22] was −17.12.

With `CCCl` [ECC, Ethyl chloride] the “Minimum temperature for site A, MEAN ± STANDARD DEVIATION” value [1] was −15.59 ± 2.50, the “Minimum temperature for site A” value [1, 3] was −15.80 and the “Minimum temperature for site A” value [1, 4] was −11.32. For the same compound, the “Minimum temperature for site A” value [1, 5] was −17.81, the “Minimum temperature for site A” value [1, 6] was −16.19 and the “Minimum temperature for site A” value [1, 7] was −16.84. For the same compound, the “Minimum temperature for site B, MEAN ± STANDARD DEVIATION” value [1] was −18.41 ± 1.92, the “Minimum temperature for site B” value [1, 3] was −19.22 and the “Minimum temperature for site B” value [1, 4] was −15.56. For the same compound, the “Minimum temperature for site B” value [1, 5] was −18.71, the “Minimum temperature for site B” value [1, 6] was −17.80 and the “Minimum temperature for site B” value [1, 7] was −20.75. The “Minimum temperature for site A, MEAN ± SD” value [2] was −16.12 ± 2.13, the “Minimum temperature for site A” value [2, 8] was −17.89 and the “Minimum temperature for site A” value [2, 9] was −17.54. For the same compound, the “Minimum temperature for site A” value [2, 10] was −14.82, the “Minimum temperature for site A” value [2, 11] was −13.46 and the “Minimum temperature for site A” value [2, 12] was −17.04. The “Minimum temperature for site A” value [2, 13] was −17.18, the “Minimum temperature for site A” value [2, 14] was −13.22 and the “Minimum temperature for site A” value [2, 15] was −13.10. The “Minimum temperature for site A” value [2, 16] was −18.11, the “Minimum temperature for site A” value [2, 17] was −17.63 and the “Minimum temperature for site A” value [2, 18] was −15.56. The “Minimum temperature for site A” value [2, 19] was −17.00, the “Minimum temperature for site A” value [2, 20] was −13.13 and the “Minimum temperature for site A” value [2, 21] was −16.26. The “Minimum temperature for site A” value [2, 22] was −19.80, the “Minimum temperature for site B, MEAN ± SD” value [2] was −15.54 ± 3.33 and the “Minimum temperature for site B” value [2, 8] was −12.79. The “Minimum temperature for site B” value [2, 9] was −17.73, the “Minimum temperature for site B” value [2, 10] was −11.70 and the “Minimum temperature for site B” value [2, 11] was −16.21. For the same compound, the “Minimum temperature for site B” value [2, 12] was −15.84, the “Minimum temperature for site B” value [2, 13] was −15.32 and the “Minimum temperature for site B” value [2, 14] was −10.04. For the same compound, the “Minimum temperature for site B” value [2, 15] was −20.86, the “Minimum temperature for site B” value [2, 16] was −16.69 and the “Minimum temperature for site B” value [2, 17] was −18.07. The “Minimum temperature for site B” value [2, 18] was −18.65, the “Minimum temperature for site B” value [2, 19] was −10.58 and the “Minimum temperature for site B” value [2, 20] was −12.08. The “Minimum temperature for site B” value [2, 21] was −17.86 and the “Minimum temperature for site B” value [2, 22] was −18.69.
